Measurements taken from patent US20230137932A1, “CYANO-PYRIMIDINE INHIBITORS OF EGFR/HER2” (Dana-Farber Cancer Institute, Inc., priority 2020, published 2023).
Like-named read-outs stand apart in the source and are kept apart here.

Experiments:
EGFR SVD = molecular target: T1, EGFR SVD (Homo sapiens, UniProt P00533, INS770SVD); test: Ba/F3 cell viability (MTS), EGFR SVD; type: cell-based; conditions: Ba/F3 cells, 72 hours
T1 construct: expressed in transfected cells; host or cells: Ba/F3 cells
Procedure: (§1) The IC50 values of the compounds provided herein were measured against kinases in Ba/F3 cells.
(§2) For assays with Ba/F3 cells, 3000 cells were seeded for per well in 96-well plates and were exposed to indicated compounds with a concentration of 3.3 to 10 μM for 72 hours.

EGFR ASV = molecular target: T2, EGFR ASV (Homo sapiens, UniProt P00533, INS769ASV); test: Ba/F3 cell viability (MTS), EGFR ASV; type: cell-based; conditions: Ba/F3 cells, 72 hours
T2 construct: expressed in transfected cells; host or cells: Ba/F3 cells
T2 sequence (P00533 with tags, fused parts or gaps INS769ASV): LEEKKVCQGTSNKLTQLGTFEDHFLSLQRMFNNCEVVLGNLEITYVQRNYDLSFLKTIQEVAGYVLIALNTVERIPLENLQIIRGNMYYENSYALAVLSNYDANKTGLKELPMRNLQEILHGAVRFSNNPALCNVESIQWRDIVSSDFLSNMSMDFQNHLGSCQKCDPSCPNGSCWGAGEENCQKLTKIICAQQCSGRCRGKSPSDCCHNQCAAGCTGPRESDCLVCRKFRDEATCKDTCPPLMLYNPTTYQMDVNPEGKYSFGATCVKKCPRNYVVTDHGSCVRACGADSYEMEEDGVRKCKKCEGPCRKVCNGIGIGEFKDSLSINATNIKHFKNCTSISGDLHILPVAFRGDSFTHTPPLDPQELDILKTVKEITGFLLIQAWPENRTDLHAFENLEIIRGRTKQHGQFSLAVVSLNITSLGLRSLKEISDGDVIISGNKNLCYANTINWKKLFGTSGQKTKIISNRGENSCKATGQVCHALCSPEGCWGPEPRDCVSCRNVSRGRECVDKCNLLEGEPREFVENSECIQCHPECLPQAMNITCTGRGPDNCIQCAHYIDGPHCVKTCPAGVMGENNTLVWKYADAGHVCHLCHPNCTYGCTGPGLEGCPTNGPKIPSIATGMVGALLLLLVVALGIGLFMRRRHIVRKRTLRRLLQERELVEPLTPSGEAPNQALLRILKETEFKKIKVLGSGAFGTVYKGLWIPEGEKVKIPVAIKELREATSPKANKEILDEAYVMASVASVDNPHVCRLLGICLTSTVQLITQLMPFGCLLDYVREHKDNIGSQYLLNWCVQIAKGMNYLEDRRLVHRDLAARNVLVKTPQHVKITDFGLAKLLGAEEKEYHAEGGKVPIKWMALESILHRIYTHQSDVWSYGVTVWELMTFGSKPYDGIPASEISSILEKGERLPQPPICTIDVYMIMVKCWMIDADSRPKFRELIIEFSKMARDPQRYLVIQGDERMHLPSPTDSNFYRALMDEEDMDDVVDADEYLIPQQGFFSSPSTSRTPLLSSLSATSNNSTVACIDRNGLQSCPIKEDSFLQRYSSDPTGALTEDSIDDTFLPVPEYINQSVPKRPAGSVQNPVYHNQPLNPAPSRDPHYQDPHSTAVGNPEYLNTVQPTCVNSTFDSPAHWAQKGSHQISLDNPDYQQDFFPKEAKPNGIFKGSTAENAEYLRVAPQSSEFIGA
Procedure: as §1, §2

Ba/F3 parental = test: Ba/F3 cell viability (MTS), parental cells; type: cell-based, murine; conditions: Mus musculus, BaF3, Table 3, 72 hours
Procedure: as §1, §2

H = H (Homo sapiens, UniProt P00533, cells depend on it, form not given); test: Ba/F3 cell viability (MTS), H; type: cell-based; conditions: Table 5
VC = VC (Homo sapiens, UniProt P04626, DELINS776-776VC, cells depend on it); test: Ba/F3 cell viability (MTS), VC; type: cell-based; conditions: Table 5
Procedure: as §1, §2

WLV = WLV (Homo sapiens, UniProt P04626, DELINS774-774WLV, cells depend on it); test: Ba/F3 cell viability (MTS), WLV; type: cell-based; conditions: Table 5
Sequence of WLV (P04626 with tags, fused parts or gaps DELINS774-774WLV): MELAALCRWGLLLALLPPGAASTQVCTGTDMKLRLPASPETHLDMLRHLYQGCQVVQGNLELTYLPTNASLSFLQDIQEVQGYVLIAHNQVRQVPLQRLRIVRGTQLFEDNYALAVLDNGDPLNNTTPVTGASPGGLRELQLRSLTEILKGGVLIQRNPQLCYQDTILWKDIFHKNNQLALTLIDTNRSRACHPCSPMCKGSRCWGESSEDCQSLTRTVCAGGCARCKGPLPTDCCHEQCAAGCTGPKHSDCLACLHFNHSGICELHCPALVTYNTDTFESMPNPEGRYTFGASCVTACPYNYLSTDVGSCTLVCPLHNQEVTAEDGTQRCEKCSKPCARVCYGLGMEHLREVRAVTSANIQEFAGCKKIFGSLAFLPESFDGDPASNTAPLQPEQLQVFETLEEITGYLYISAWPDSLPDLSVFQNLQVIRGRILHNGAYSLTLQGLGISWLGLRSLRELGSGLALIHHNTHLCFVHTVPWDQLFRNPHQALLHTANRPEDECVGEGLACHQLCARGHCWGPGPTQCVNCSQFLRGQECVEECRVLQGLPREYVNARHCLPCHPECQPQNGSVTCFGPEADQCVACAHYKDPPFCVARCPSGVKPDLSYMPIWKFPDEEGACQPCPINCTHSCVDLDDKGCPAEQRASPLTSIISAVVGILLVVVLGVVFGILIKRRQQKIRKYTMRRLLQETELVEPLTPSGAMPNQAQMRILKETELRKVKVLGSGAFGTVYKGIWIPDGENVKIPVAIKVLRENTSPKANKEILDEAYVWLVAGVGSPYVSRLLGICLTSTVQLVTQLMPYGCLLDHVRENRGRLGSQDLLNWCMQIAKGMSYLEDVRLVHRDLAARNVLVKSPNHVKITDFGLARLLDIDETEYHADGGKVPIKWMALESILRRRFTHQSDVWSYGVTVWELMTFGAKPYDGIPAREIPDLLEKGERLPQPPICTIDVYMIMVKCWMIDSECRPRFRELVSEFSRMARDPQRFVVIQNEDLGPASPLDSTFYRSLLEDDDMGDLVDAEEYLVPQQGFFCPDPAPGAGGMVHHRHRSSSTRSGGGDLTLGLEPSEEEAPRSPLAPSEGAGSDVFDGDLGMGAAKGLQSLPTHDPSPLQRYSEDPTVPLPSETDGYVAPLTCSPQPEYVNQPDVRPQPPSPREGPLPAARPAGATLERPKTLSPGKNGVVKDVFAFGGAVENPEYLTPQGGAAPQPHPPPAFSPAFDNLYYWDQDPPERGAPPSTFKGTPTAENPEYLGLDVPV
Procedure: as §1, §2

exon19 = exon19 (Homo sapiens, UniProt P00533, cells depend on it, form not given); test: Ba/F3 cell viability (MTS), exon19; type: cell-based; conditions: Table 5
Sequence of exon19 (P00533 with tags, fused parts or gaps DEL746-750): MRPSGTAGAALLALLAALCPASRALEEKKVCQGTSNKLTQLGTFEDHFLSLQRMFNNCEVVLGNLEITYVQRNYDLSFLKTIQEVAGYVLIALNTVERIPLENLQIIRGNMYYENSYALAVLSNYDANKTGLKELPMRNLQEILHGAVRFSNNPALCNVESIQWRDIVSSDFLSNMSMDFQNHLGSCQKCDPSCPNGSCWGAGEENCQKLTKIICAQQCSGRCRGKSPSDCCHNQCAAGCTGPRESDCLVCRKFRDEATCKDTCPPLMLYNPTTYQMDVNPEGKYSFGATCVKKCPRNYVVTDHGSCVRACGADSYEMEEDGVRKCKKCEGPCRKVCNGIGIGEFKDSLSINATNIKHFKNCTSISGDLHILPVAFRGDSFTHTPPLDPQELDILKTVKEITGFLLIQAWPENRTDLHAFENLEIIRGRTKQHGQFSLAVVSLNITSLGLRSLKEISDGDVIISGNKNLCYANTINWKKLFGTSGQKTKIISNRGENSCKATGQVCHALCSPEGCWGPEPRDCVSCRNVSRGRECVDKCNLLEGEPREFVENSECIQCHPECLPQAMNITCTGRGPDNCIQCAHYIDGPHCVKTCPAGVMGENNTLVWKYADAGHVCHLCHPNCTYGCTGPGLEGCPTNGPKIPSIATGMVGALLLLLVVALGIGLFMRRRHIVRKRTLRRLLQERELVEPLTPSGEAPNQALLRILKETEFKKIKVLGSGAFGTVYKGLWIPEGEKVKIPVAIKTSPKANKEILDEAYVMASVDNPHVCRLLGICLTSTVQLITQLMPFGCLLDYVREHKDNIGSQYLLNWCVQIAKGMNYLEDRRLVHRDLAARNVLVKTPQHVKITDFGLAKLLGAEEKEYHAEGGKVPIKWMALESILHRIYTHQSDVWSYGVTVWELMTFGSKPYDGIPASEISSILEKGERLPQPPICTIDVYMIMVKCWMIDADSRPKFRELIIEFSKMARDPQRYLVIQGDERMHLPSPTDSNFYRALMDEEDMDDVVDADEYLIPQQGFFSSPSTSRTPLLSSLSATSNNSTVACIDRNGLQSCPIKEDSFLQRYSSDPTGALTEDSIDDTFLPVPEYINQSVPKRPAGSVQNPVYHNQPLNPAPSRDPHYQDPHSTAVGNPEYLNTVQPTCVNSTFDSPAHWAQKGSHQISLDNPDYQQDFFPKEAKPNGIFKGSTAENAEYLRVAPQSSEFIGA

T1 sequence (P00533 with tags, fused parts or gaps INS770SVD): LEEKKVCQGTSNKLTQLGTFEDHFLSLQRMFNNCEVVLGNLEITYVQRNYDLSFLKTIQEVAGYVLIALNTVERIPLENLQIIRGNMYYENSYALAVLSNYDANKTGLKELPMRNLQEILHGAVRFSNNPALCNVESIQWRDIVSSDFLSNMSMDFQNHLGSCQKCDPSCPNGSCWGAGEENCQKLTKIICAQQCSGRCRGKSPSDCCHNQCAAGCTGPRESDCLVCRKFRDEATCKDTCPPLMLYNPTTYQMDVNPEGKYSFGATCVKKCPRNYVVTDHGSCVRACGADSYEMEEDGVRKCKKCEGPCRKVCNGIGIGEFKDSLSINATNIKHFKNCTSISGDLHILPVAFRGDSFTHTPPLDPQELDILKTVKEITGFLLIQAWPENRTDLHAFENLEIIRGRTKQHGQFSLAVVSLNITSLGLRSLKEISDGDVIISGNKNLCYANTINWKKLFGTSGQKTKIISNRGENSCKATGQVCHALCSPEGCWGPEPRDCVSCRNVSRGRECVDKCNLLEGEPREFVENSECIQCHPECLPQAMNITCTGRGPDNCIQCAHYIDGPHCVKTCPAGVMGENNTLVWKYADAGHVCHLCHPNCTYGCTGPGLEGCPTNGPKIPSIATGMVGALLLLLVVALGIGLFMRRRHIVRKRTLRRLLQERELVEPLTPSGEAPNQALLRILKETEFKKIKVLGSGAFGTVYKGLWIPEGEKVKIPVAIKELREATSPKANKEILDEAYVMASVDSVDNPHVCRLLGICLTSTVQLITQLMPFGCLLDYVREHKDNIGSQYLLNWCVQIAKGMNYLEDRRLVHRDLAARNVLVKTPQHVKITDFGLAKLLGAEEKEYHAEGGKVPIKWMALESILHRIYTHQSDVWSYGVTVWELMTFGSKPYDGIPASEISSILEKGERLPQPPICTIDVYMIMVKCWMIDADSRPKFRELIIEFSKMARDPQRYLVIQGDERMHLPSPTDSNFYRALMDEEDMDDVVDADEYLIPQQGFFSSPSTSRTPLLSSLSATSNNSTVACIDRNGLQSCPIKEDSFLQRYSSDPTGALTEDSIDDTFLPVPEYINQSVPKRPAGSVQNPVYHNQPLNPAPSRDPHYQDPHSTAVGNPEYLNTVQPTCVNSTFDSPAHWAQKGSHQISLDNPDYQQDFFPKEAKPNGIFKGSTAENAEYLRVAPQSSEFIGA

C=CC(=O)Nc1cc(Nc2ncc(C#N)c(NC34CC(C3)C4)n2)c(OC)cc1N(C)CCN(C)C [Compound 013, N-(5-((4-(bicyclo[1.1.1]pentan-1-ylamino)-5-cyanopyrimidin-2-yl)amino)-2-((2-(dimethylamino)ethyl)(methyl)amino)-4-methoxyphenyl)acrylamide]
IC50 (EGFR SVD; Table 2, read-out: Ba/F3 IC50 SVD): 6.1 nM
IC50 (EGFR SVD; Table 4, read-out: EGFR Ba/F3 SVD): 44.7 nM
IC50 (EGFR ASV; Table 2, read-out: Ba/F3 IC50 ASV): 5.11 nM
IC50 (EGFR ASV; Table 4, read-out: EGFR Ba/F3 ASV): 19.3 nM
IC50 (Ba/F3 parental): 4580 nM

C=CC(=O)Nc1cc(Nc2ncc(C#N)c(Nc3cccc(C)c3)n2)c(OC)cc1N(C)CCN(C)C [Compound 014, N-(5-((5-cyano-4-(m-tolylamino)pyrimidin-2-yl)amino)-2-((2-(dimethyl-amino)ethyl)(methyl)amino)-4-methoxyphenyl)acrylamide]
IC50 (Ba/F3 parental): 7380 nM

C=CC(=O)Nc1cc(Nc2ncc(C#N)c(NC34CC(C(F)F)(C3)C4)n2)c(OC)cc1N(C)CCN(C)C [Compound 015, N-(5-(5-cyano-4-(3-(difluoromethyl)bicycle[1.1.1]pentan-1-ylamino)-pyrimidin-2-ylamino)-2-((2-(dimethylamino)ethyl)(methyl)amino)-4-methoxyphenyl)-acrylamide]
IC50 (Ba/F3 parental): 6260 nM

C=CC(=O)Nc1cc(Nc2ncc(C#N)c(NC3C(C)C4CCC3C4(C)C)n2)c(OC)cc1N(C)CCN(C)C (stereo not shown) [Compound 016, N-(5-((5-cyano-4-((3,7,7-trimethylbicyclo[2.2.1]heptan-2-yl)amino)-pyrimidin-2-yl)amino)-2-((2-(dimethylamino)ethyl)(methyl)amino)-4-methoxyphenyl)-acrylamide]
IC50 (Ba/F3 parental): 4340 nM

C=CC(=O)Nc1cc(Nc2nccc(NC34CC(C3)C4)n2)c(OC)cc1N(C)CCN(C)C [Compound 017, N-(5-((4-(bicyclo[1.1.1]pentan-1-ylamino)pyrimidin-2-yl)amino)-2-((2-(dimethylamino)ethyl)(methyl)amino)-4-methoxyphenyl)acrylamide]
IC50 (Ba/F3 parental): 2300 nM

C=CC(=O)Nc1cc(Nc2ncc(OC)c(NC34CC(C3)C4)n2)c(OC)cc1N(C)CCN(C)C [Compound 018, N-(5-((4-(bicyclo[1.1.1]pentan-1-ylamino)-5-methoxypyrimidin-2-yl)amino)-2-((2-(dimethylamino)ethyl)(methyl)amino)-4-methoxyphenyl)acrylamide]
IC50 (Ba/F3 parental): 9220 nM

C=CC(=O)Nc1cc(Nc2ncc(C3CC3)c(NC34CC(C3)C4)n2)c(OC)cc1N(C)CCN(C)C [Compound 019, N-(5-((4-(bicyclo[1.1.1]pentan-1-ylamino)-5-cyclopropylpyrimidin-2-yl)amino)-2-((2-(dimethylamino)ethyl)(methyl)amino)-4-methoxyphenyl)acrylamide]
IC50 (Ba/F3 parental): 4250 nM

C=CC(=O)Nc1cc(Nc2ncc(C#N)c(NC3CCC3)n2)c(OC)cc1N(C)CCN(C)C [Compound 020]
IC50 (Ba/F3 parental): 5930 nM

C=CC(=O)Nc1cc(Nc2ncc(C#N)c(N3CCC3)n2)c(OC)cc1N(C)CCN(C)C [Compound 021, N-(5-(4-(azetidin-1-yl)-5-cyanopyrimidin-2-ylamino)-2-((2-(dimethyl-amino)ethyl)(methyl)amino)-4-methoxyphenyl)acrylamide]
IC50 (Ba/F3 parental): 6040 nM

C=CC(=O)Nc1cc(Nc2ncc(C#N)c(Nc3ccc(Oc4ccn5ccnc5c4)c(C)c3)n2)c(OC)cc1N(C)CCN(C)C [Compound 022]
GI50 (H): 28.5 nM
GI50 (VC): 9.56 nM
GI50 (WLV): 61.3 nM
GI50 (exon19): 0.948 nM

C=CC(=O)Nc1cc(Nc2nc(Nc3ccc(Oc4ccn5ccnc5c4)c(C)c3)ncc2C#N)c(OC)cc1N(C)CCN(C)C [Compound 027]
GI50 (H): 444 nM
GI50 (VC): 317 nM
GI50 (WLV): 461 nM
GI50 (exon19): 44.7 nM

CCC(=O)Nc1cc(Nc2ncc(C#N)c(NC34CC(C3)C4)n2)c(OC)cc1N(C)CCN(C)C [Compound 028, N-(5-((4-(bicyclo[1.1.1]pentan-1-ylamino)-5-cyanopyrimidin-2-yl)amino)-2-((2-(dimethylamino)ethyl)(methyl)amino)-4-methoxyphenyl)propionamide]
IC50 (Ba/F3 parental): 10500 nM

C=CC(=O)Nc1cc(Nc2ncc(C#N)c(Nc3ccc(Oc4ccn5ccnc5c4)c(C)c3)n2)c(OC)cc1N(C)C [Compound 029]
IC50 (Ba/F3 parental): 8720 nM

C=CC(=O)Nc1cc(Nc2ncc(C#N)c(Nc3ccc(Oc4ccn5ccnc5c4)c(C)c3)n2)c(OC)cc1N1CC(N(C)C)C1 [Compound 030]
IC50 (Ba/F3 parental): 9940 nM

C=CC(=O)Nc1cc(Nc2ncc(C#N)c(NC34CC(CN(C)C)(C3)C4)n2)c(OC)cc1N1CCOCC1 [Compound 031]
IC50 (Ba/F3 parental): 8050 nM
